The values below come from patent US20260356804A1, “SODIUM CHANNEL BLOCKING COMPOUNDS, DERIVATIVES THEREOF, AND METHODS OF THEIR USE” (LATIGO BIOTHERAPEUTICS, INC., priority 2022, published 2026).

The target of this test is T1, human Nav1.8/b3 (Homo sapiens, UniProt Q9Y5Y9).
T1 construct: expressed in transfected cells; host or cells: CHO
The experiment in a line: Compound Profiling Human NaV1.8/β3 Cell Line—SyncroPatch384PE Assay (automated patch clamp, stably transfected CHO cells). It counts as cell-based. Conditions: Nav1.8/b3 CHO cells. A general note: Patch clamp records ionic current or voltage across a cell membrane.

Setting [1] is: P1 (IC50, resting state block), P1 measurement, resting state block, holding potential −120 mV, first set of compounds.
Where [2] appears, read: P2 (IC50, inactivated state block), P2 measurement, inactivated state block, inactivation step −35 mV 10 sec, first set of compounds.
Setting [3] is: P1 (IC50, resting state block), P1 measurement, resting state block, holding potential −120 mV, fourth set of compounds.
The mark [4] stands for this setting: P2 (IC50, inactivated state block), P2 measurement, inactivated state block, inactivation step −35 mV 10 sec, fourth set of compounds.
Setting [5] is: P1 (IC50, resting state block), P1 measurement, resting state block, holding potential −120 mV, third set of compounds.
Setting [6] is: P2 (IC50, inactivated state block), P2 measurement, inactivated state block, inactivation step −35 mV 10 sec, third set of compounds.
[7] abbreviates: P1 measurement, resting state block, holding potential −120 mV, third set of compounds, read-out: P1 (IC50, resting state block).
Where [8] appears, read: P2 measurement, inactivated state block, inactivation step −35 mV 10 sec, third set of compounds, read-out: P2 (IC50, inactivated state block).
[9] abbreviates: P1 (IC50, resting state block), P1 measurement, resting state block, holding potential −120 mV, second set of compounds.
Setting [10] is: P2 (IC50, inactivated state block), P2 measurement, inactivated state block, inactivation step −35 mV 10 sec, second set of compounds.

What is called IC50 is the concentration needed to halve the response being measured.

Where two headings read alike, the source gives them in different places.

T1 sequence (Q9Y5Y9 whole entry): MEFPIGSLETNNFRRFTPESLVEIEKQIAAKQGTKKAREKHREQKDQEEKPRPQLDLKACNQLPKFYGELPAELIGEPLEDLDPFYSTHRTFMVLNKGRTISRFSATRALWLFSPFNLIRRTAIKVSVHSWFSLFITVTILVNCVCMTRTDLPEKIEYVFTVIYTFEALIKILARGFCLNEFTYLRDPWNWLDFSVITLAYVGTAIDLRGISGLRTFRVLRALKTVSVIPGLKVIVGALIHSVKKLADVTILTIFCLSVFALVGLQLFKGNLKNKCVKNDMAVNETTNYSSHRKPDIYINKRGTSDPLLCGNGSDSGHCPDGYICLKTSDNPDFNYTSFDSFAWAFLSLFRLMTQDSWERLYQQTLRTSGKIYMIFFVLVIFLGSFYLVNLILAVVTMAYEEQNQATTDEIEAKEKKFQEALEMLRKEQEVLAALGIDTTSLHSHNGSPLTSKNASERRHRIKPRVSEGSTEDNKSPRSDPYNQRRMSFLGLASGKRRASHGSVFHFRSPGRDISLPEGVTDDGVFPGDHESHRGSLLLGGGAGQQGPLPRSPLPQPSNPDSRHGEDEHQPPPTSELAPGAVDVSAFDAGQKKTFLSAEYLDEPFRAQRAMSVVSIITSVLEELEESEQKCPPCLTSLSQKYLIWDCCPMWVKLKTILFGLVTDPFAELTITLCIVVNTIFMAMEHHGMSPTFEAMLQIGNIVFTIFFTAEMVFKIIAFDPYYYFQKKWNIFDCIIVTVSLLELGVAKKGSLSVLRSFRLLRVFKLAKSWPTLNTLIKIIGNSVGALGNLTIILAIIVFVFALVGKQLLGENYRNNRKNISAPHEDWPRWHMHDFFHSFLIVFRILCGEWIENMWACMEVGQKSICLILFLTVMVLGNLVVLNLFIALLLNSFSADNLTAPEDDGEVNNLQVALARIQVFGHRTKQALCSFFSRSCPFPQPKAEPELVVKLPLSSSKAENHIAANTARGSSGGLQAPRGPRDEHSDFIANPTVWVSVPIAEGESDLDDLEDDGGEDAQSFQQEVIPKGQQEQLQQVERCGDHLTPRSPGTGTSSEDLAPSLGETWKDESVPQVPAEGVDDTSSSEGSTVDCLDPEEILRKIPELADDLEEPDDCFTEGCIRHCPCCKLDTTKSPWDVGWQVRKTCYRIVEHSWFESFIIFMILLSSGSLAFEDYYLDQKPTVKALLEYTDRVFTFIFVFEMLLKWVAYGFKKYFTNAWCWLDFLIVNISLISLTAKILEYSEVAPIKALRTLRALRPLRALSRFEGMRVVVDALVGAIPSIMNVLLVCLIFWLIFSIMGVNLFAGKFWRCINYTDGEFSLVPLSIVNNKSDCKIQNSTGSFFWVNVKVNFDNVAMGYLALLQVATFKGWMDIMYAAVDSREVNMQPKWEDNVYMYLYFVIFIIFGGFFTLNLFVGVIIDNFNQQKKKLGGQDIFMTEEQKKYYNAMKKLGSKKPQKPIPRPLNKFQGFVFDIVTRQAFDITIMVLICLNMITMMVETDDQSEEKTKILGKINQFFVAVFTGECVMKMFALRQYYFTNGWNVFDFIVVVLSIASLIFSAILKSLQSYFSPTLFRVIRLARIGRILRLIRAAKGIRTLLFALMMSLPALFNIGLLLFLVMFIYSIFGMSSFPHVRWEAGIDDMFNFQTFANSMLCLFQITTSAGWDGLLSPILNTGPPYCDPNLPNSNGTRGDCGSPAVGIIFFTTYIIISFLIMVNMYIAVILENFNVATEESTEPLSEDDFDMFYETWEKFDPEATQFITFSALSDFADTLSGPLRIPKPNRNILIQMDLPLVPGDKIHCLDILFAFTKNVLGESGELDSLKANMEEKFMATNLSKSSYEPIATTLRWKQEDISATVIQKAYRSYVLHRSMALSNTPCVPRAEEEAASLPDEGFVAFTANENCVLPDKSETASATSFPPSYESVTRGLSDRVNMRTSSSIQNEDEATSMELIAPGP
T1 sequence (Q9NY72 23-215 partner): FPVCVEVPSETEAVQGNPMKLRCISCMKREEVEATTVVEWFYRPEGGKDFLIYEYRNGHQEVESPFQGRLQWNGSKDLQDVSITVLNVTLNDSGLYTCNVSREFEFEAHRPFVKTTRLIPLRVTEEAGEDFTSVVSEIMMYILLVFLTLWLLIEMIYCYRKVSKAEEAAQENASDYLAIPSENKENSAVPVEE

Consider `Cc1nc(F)ccc1Oc1cc(C(F)(F)F)c(Cl)cc1C(=O)Nc1ccnc([S@](C)(=N)=O)c1` (single isomer, unassigned) [Example 6A], for which the IC50 by setting is: under setting [1], less than 5 nM; under setting [2], less than 5 nM.

Consider `Cc1nc(F)ccc1Oc1ncc(C(F)(F)F)c(C)c1C(=O)Nc1cccc([S@@](C)(=O)=NC(=O)[C@@H]2CCCN2)c1` [Example 22D, N-(3-((R)—N-(L-prolyl)-S-methylsulfonimidoyl)phenyl)-2-((6-fluoro-2-methylpyridin-3-yl)oxy)-4-methyl-5-(trifluoromethyl)nicotinamide], for which the concentration for half-maximal inhibition (IC50) runs as follows: under setting [3], less than 5 nM; under setting [4], less than 5 nM.

As to `Cc1nc(F)ccc1Oc1ncc(C(F)(F)F)c(C)c1C(=O)Nc1cccc(C(N)=O)c1` [Example 119C], the IC50 was less than 5 nM under setting [5] and less than 5 nM under setting [6].

Consider `Cc1nc(F)ccc1Oc1ncc(C(F)(F)F)c(C)c1C(=O)Nc1cccc([S@@](C)(=O)=NCCN(C)C)c1` [Example 91C], for which the IC50 was less than 5 nM under setting [5] and less than 5 nM under setting [6].

Turning to `Cc1nc(F)ccc1Oc1nc(C2CC2)c(C(F)(F)F)c(C)c1C(=O)Nc1cccc([S@@](C)(=N)=O)c1` [Example 107C], the IC50 reads like this: under setting [7], less than 5 nM; under setting [8], less than 5 nM.

As for `Cc1nc(F)ccc1Oc1ncc(C(F)(F)F)c(C)c1C(=O)Nc1cccc([S@@](C)(=O)=NC(=O)CN2CC(F)(F)C2)c1` [Example 29D, (R)—N-(3-(N-(2-(3,3-difluoroazetidin-1-yl)acetyl)-S-methylsulfonimidoyl)phenyl)-2-((6-fluoro-2-methylpyridin-3-yl)oxy)-4-methyl-5-(trifluoromethyl)nicotinamide], the IC50 under setting [3] was less than 5 nM and the IC50 under setting [4] was less than 5 nM.

Regarding `COc1cc(C#N)ccc1Oc1ncc(C(F)(F)F)c(C)c1C(=O)Nc1cccc(S(N)(=O)=O)c1` [Example 28C, 2-(4-cyano-2-methoxyphenoxy)-4-methyl-N-(3-sulfamoylphenyl)-5-(trifluoromethyl)nicotinamide], the IC50 is less than 5 nM under setting [5] and less than 5 nM under setting [6].

`Cc1nc(F)ccc1Oc1ccc(C(F)(F)F)c(C)c1C(=O)Nc1cccc([S@@](C)(=O)=NC(=O)CO)c1` [Example 27B]: the IC50 under setting [9] is less than 5 nM and the IC50 under setting [10] was less than 5 nM.

For `Cc1nc(F)ccc1Oc1ncc(C(F)(F)F)c(C)c1C(=O)Nc1ccnc([S@](C)(=N)=O)c1` (single isomer, unassigned) [Example 11C], the IC50 reads like this: under setting [5], 5 to 50 nM; under setting [6], 5 to 50 nM.

For the compound `Cc1nc(F)ccc1Oc1ncc(-c2ccc3c(c2)OCCO3)c(C)c1C(=O)Nc1cccc([S@](C)(=N)=O)c1` [Example 4C, (R)-5-(2,3-dihydrobenzo[b][1,4]dioxin-6-yl)-2-((6-fluoro-2-methylpyridin-3-yl)oxy)-4-methyl-N-(3-(S-methylsulfonimidoyl)phenyl)nicotinamide], the IC50 by setting is: under setting [5], 5 to 50 nM; under setting [6], 5 to 50 nM.

The compound `Cc1nc(F)ccc1Oc1ccc(C(F)(F)F)c(C)c1C(=O)Nc1cccc([S@@](C)(=O)=NC(=O)[C@@H]2CCCN2)c1` [Example 22B] registered an IC50 under setting [9] of less than 5 nM and an IC50 under setting [10] of less than 5 nM.

Turning to `Cc1nc(F)ccc1Oc1cc(C(F)(F)F)c(Cl)c(C)c1C(=O)Nc1cccc([S@@](C)(=N)=O)c1` [Example 66A], the IC50 is, setting by setting: under setting [1], less than 5 nM; under setting [2], less than 5 nM.

Turning to `COc1cc(C#N)ccc1Oc1ncc(-c2ccc(C(F)F)cc2)c(C)c1C(=O)Nc1ccnc([S@@](C)(=N)=O)c1` [Example 16C, (S)-2-(4-cyano-2-methoxyphenoxy)-5-(4-(difluoromethyl)phenyl)-4-methyl-N-(2-(S-methylsulfonimidoyl)pyridin-4-yl)nicotinamide], the IC50 is, setting by setting: under setting [5], more than 200 nM; under setting [6], more than 200 nM.

Consider `Cc1nc(F)ccc1Oc1cc(C2CC2)c(C(F)(F)F)c(C)c1C(=O)Nc1cccc([S@@](C)(=N)=O)c1` [Example 42A], for which the IC50 under setting [1] is less than 5 nM and the IC50 under setting [2] is less than 5 nM.

As for `CNCC(=O)N=[S@](C)(=O)c1cccc(NC(=O)c2c(Oc3ccc(F)nc3C)nnc(C(F)(F)F)c2C)c1` [Example 25D, (R)-3-((6-fluoro-2-methylpyridin-3-yl)oxy)-5-methyl-N-(3-(S-methyl-N-(methylglycyl)sulfonimidoyl)phenyl)-6-(trifluoromethyl)pyridazine-4-carboxamide], the IC50 is, setting by setting: under setting [3], less than 5 nM; under setting [4], less than 5 nM.

Take `Cc1nc(F)ccc1Oc1ncc(C(F)(F)F)c(C)c1C(=O)Nc1ccc(F)c([S@](C)(=N)=O)c1` (single isomer, unassigned) [Example 15C]: the half-inhibitory concentration (IC50) is, setting by setting: under setting [5], 5 to 50 nM; under setting [6], 5 to 50 nM.

For `Cc1nc(F)ccc1Oc1cc(C(F)(F)F)c(Cl)cc1C(=O)Nc1cccc(C(N)=O)c1` [Example 73A], the IC50 is, setting by setting: under setting [1], less than 5 nM; under setting [2], less than 5 nM.

`Cc1nc(F)ccc1Oc1ncc(C(F)(F)F)c(C)c1C(=O)Nc1cccc([S@@](C)(=O)=NC(=O)[C@@H](C)O)c1` [Example 16D, 2-((6-fluoro-2-methylpyridin-3-yl)oxy)-N-(3-((R)—N—((R)-2-hydroxypropanoyl)-S-methylsulfonimidoyl)phenyl)-4-methyl-5-(trifluoromethyl)nicotinamide]: the 50% inhibitory concentration (IC50) by setting is: under setting [3], less than 5 nM; under setting [4], less than 5 nM.

For `Cc1nc(F)ccc1Oc1ccc(C(F)(F)F)c(F)c1C(=O)Nc1cccc([S@](C)(=N)=O)c1` [Example 4A, (R)-2-fluoro-6-((6-fluoro-2-methylpyridin-3-yl)oxy)-N-(3-(S-methylsulfonimidoyl)phenyl)-3-(trifluoromethyl)benzamide], the IC50 is, setting by setting: under setting [1], less than 5 nM; under setting [2], less than 5 nM.

For the compound `Cc1nc(F)ccc1Oc1nnc(C(F)(F)F)c(C)c1C(=O)Nc1cccc([S@@](C)(=O)=NC(=O)[C@@H]2CCCN2)c1` [Example 26D, N-(3-((R)—N-(L-prolyl)-S-methylsulfonimidoyl)phenyl)-3-((6-fluoro-2-methylpyridin-3-yl)oxy)-5-methyl-6-(trifluoromethyl)pyridazine-4-carboxamide], the IC50 reads like this: under setting [3], less than 5 nM; under setting [4], less than 5 nM.

Turning to `Cc1nc(F)ccc1Oc1ncc(C2CCC2)c(C)c1C(=O)Nc1cccc([S@](C)(=N)=O)c1` [Example 99C], the IC50 under setting [5] was 5 to 50 nM and the IC50 under setting [6] was in the range of 5 to 50 nM.

For the compound `CNCC(=O)N=[S@](C)(=O)c1cccc(NC(=O)c2ccc(C(F)(F)F)cc2Oc2ccc(F)nc2C)c1` [Example 10B, (R)-2-((6-fluoro-2-methylpyridin-3-yl)oxy)-N-(3-(S-methyl-N-(methylglycyl)sulfonimidoyl)phenyl)-4-(trifluoromethyl)benzamide], the IC50 is 5 to 50 nM under setting [9] and 5 to 50 nM under setting [10].

`Cc1nc(F)ccc1Oc1cc(C(F)(F)F)ccc1C(=O)Nc1cccc([S@@](C)(=O)=NC(=O)CN)c1` [Example 14B, (R)-2-((6-fluoro-2-methylpyridin-3-yl)oxy)-N-(3-(N-glycyl-S-methylsulfonimidoyl)phenyl)-4-(trifluoromethyl)benzamide]: the IC50 runs as follows: under setting [9], 5 to 50 nM; under setting [10], 5 to 50 nM.

For the compound `Cc1nc(F)ccc1Oc1ncc(C(F)F)c(C)c1C(=O)Nc1ccnc([S@](C)(=N)=O)c1` [Example 115C], the IC50 is more than 200 nM under setting [7] and more than 200 nM under setting [8].

Regarding `Cc1nc(F)ccc1Oc1nc(C2CC2)c(C(F)(F)F)c(C)c1C(=O)Nc1cccc([S@](C)(=N)=O)c1` [Example 108C], the IC50 was less than 5 nM (read-out: P1 (IC50, resting state block), P1 measurement, resting state block, holding potential −120 mV, third set of compounds) and less than 5 nM (read-out: P2 (IC50, inactivated state block), P2 measurement, inactivated state block, inactivation step −35 mV 10 sec, third set of compounds).

In the case of `Cc1nc(F)ccc1Oc1cc(C(F)(F)F)c(Cl)cc1C(=O)Nc1cccc([S@@](C)(=O)=NCCN)c1` [Example 14A, (R)—N-(3-(N-(2-aminoethyl)-S-methylsulfonimidoyl)phenyl)-5-chloro-2-((6-fluoro-2-methylpyridin-3-yl)oxy)-4-(trifluoromethyl)benzamide], the IC50 is, setting by setting: under setting [1], less than 5 nM; under setting [2], less than 5 nM.

For the compound `COc1cc(C#N)ccc1Oc1ncc(-c2ccc(C)cc2)c(C)c1C(=O)Nc1cccc([S@](C)(=N)=O)c1` [Example 21C, (R)-2-(4-cyano-2-methoxyphenoxy)-4-methyl-N-(3-(S-methylsulfonimidoyl)phenyl)-5-(p-tolyl)nicotinamide], the IC50 is less than 5 nM under setting [5] and less than 5 nM under setting [6].

On to `Cc1nc(F)ccc1Oc1ncc(C(F)(F)F)c(C)c1C(=O)Nc1ccc(F)c([S@@](C)(=N)=O)c1` (single isomer, unassigned) [Example 14C], for which the IC50 lay within 5 to 50 nM under setting [5] and 5 to 50 nM under setting [6].

`Cc1nc(F)ccc1Oc1cc(C(F)(F)F)c(Cl)cc1C(=O)Nc1cccc([S@@](C)(=O)=NC(=O)[C@H](C)O)c1` [Example 3B, 5-chloro-2-((6-fluoro-2-methylpyridin-3-yl)oxy)-N-(3-((R)—N—((S)-2-hydroxypropanoyl)-S-methylsulfonimidoyl)phenyl)-4-(trifluoromethyl)benzamide]: the half-inhibitory concentration (IC50) by setting is: under setting [9], less than 5 nM; under setting [10], less than 5 nM.
